In patent publication US10709724B2, “Methods of treating mitochondrial dysfunction” (Ecole Polytechnique Federale de Lausanne (EPFL), priority 2011, dated 2020):

Key:
C. elegans = assay: Confocal microscopy of mitochondria in body wall muscle (pmyo-3::mito::GFP reporter); conditions: in vivo
Procedure: Confocal Microscopy and Image Processing Worms were immobilized with 6 mM solution of tetramisole hydrochloride (Sigma, Buchs, Switzerland) in M9 and mounted on 6% agarose pads on glass slides. Images of worms were acquired using Zeiss LSM 700 Upright confocal microscope (Carl Zeiss AG, Oberkochen, Germany) under non-saturating exposure conditions. All the snapshots were taken from the same part of C. elegans: muscles from the upper part of the worm, excluding the regions of oesophagus and vulva. For each condition multiple worms were observed and imaged. Image processing was performed with the Fiji software. One of the critical issues during the imaging process was the position of the worm, as it influences the level of background. For the uniformity of the represented images, contrast and brightness were adjusted in order, to eliminate the undesirable background signal. Neither of these manipulations was affecting the mitochondrial shape. Tracing of the mitochondrial network contour was done by the use of Gaussian blur filter followed by the application of Laplacian operator.

C57Bl/6J mice = assay: Long-term NR supplementation of chow or high-fat diet fed mice; format: in vivo
Procedure: Animal Experiments. Male PARP-1^+/+ and PARP-1^−/− mice on a pure C57Bl/6J background (Menissier-de Murcia et al., 1997) were used. Mice were housed separately, had ad libitum access to water and standard rodent chow (10 kcal % of fat, Safe, Augy, France) or to a high calorie, high fat diet (60 kcal % of fat, Research. Diets, New Brunswick, N.J., USA), and were kept under a 12 h dark-light cycle. In other animal experiments, 8 weeks-old male C57Bl/6J mice were purchased from Charles River and powder chow (D12450B) and high fat (D12492) diets were from Research Diets Inc (New Brunswick, N.J., USA). 80 ml of water per kg of powder CD were used to make food pellets. 40 ml of water per kg of powder HFD were used to make food pellets. For NR, NMN and NA supplemented diets, the appropriate amount of these compounds was added to the water used to create the pellets, taking into account the differences in the daily intake of each diet. Mice were housed separately, had ad libitum access to water and food and were kept under a 12 h dark-light cycle. Mice were fed with homemade pellets from 10 weeks of age. To make the pellets, the powder food was mixed with water (vehicle) or with NR. All animal experiments were carried out according to local national and EU ethical guidelines. To monitor body weight, mice were weighed and the food consumption was measured each week on the same day. In case of PJ34 treatment, mice received each 12 h (at 7:00 and 19:00) 10 mg/kg PJ34 by intraperitoneal injection for 5 continuous days. In all studies animals were killed (at 14:00) either after CO2 inhalation or cervical dislocation after 6 h of fasting (starting at 8:00), and tissues were collected and processed as specified below. Oral glucose tolerance test, intraperitoneal insulin tolerance test, free fatty acid (FFA) and triglycerides were determined as described (Lagouge et al., 2006). Plasma insulin and was determined in heparinized plasma samples using specific ELISA kits (Mercodia). Blood samples were collected in heparinized tubes and plasma was isolated after centrifugation. Plasma parameters were measured using a Cobas c111 (Roche Diagnostics). Thermoadaptation was performed as described (Lagouge et al., 2006). We measured O2 consumption, CO2 production, and spontaneous locomotor activity in an open circuit indirect calorimetry system (Sabre systems, Las Vegas, Nev., USA) over 24-48 has described (Dali-Youcef et al., 2007; Lagouge et al., 2006; Watanabe et al., 2006). […] The respiratory quotient was the ratio of CO2 production over O2 consumption. During actimetry, beamline crossings were summarized each 15 minutes. […] Euglycemic-hyperinsulinemic clamps were performed in PARP-1^−/− and ^+/+ male mice (n=4 mice per genotype; age=4 months) exactly as previously described (Feige et al, 2008).
Instruments, total body fat was measured by echoMRI as described (Lagouge et al., 2006; Watanabe et al., 2006). Endurance test was performed as described in (Canto et al., 2009). Intraperitoneal glucose and insulin tolerance tests (IPGTT and IPITT, respectively) were performed as previously described (Feige et al, 2008). The animals were killed after 6 h of fasting by CO2 asphyxiation and tissues were collected. Total body fat content was then examined at autopsy, by weighing the subcutaneous, gonadal, mesenterial, retroperitoneal and BAT associated fat depots. Liver triglyceride was determined after Folch extraction using a commercial triglyceride kit (Roche). Pancreas and plasma insulin content was determined from acidic extracts using a commercial ELISA kit (Mercodia) (Champy et al., 2004).
Histology and Microscopy. Haematoxylin-eosin (HE), Oil Red-O and succinate-dehydrogenase (SDH) stainings were performed on […] tissue sections as described (Lagouge et al., 2006; Picard et al., 2002). Transmission electron microscopy (TEM) investigation was performed on glutaraldehyde-fixed, osmium tetroxyde stained ultrafine sections (Watanabe et al., 2006). […]

In the case of `NC(=O)c1ccc[n+]([C@@H]2O[C@H](CO)[C@@H](O)[C@H]2O)c1` [NR, nicotinamide riboside], the “mitochondrial content in body wall muscle” value (C. elegans) is reported as “increase muscle mitochondrial content”, the “mitochondrial morphology in body wall muscle” value (C. elegans) is reported as “affect mitochondrial morphology” and the fasting insulin levels (C57Bl/6J mice; 16 weeks, 6 hr fast) is reported as “much lower”. For the same molecule, the “thermogenic capacity (body temperature during cold exposure)” value (C57Bl/6J mice; CD and HFD) was “enhanced thermogenic capacity”, the “O2 consumption rates on CD” value (C57Bl/6J mice; CD, NR 400 mg/kg/day) was “marked tendency to display higher O2 consumption rates” and the “RER changes between feeding and fasting periods” value (C57Bl/6J mice; CD, NR 400 mg/kg/day) was “higher amplitude of the changes in RER”. The “body weight on chow diet” value (C57Bl/6J mice; CD, NR 400 mg/kg/day) was “no effect”, the HDL-cholesterol levels (C57Bl/6J mice; HFD) was “unaffected” and the “HFD-induced increase in LDL cholesterol” value (C57Bl/6J mice; HFD) was “partially prevented the increase”. The “cristae of mitochondria in BAT (electron microscopy)” value (C57Bl/6J mice; HFD) was “more abundant cristae”, the “size of mitochondria in BAT (electron microscopy)” value (C57Bl/6J mice; HFD) was “not being significantly larger” and the “glucose tolerance (intraperitoneal glucose tolerance test)” value (C57Bl/6J mice; HFD, 10 weeks) was “slight, albeit not significant, improvement in glucose tolerance”. For the same molecule, the “insulin secretion during glucose tolerance test” value (C57Bl/6J mice; HFD, 10 weeks) was “robust reduction in insulin secretion”, the “endurance performance on HFD (treadmill)” value (C57Bl/6J mice; HFD, 12 weeks) was “significantly accentuated” and the “HFD-induced increase in total cholesterol” value (C57Bl/6J mice; HFD, 16 weeks, 6 hr fast) was “partially prevented the increase”. The “O2 consumption rates on HFD” value (C57Bl/6J mice; HFD, NR 400 mg/kg/day) was “clearly significant”, the “fat mass (Echo-MRI)” value (C57Bl/6J mice; HFD, NR 400 mg/kg/day, 8 weeks) was “reduced fat mass” and the “HFD-induced body weight gain” value (C57Bl/6J mice; HFD, NR 400 mg/kg/day, 12 weeks) was “significantly attenuated”. The activity pattern (C57Bl/6J mice; NR 400 mg/kg/day) was “did not affect the activity pattern”, the “liver triglycerides, less than vehicle-fed” value (C57Bl/6J mice; NR 400 mg/kg/day) was 40% and the “weight of the epididymal depot” value (C57Bl/6J mice; NR 400 mg/kg/day) was “significant lower weight of the epididymal depot”. The food intake (C57Bl/6J mice; NR 400 mg/kg/day, especially on HFD) was “tendency to eat more”, the endurance performance (C57Bl/6J mice; NR-fed vs vehicle fed) was “clear tendency to display a better endurance performance” and the “SDH staining of gastrocnemius muscle” value (C57Bl/6J mice; mouse, in vivo) was “more intense SDH staining”.
